Patent publication US10967000B2, “Cell-penetrating peptide, conjugate comprising same and composition comprising same” (GemVax & KAEL Co., Ltd., priority 2012, dated 2021)
No end group written: not given here. *: point of attachment. FITC = O=C1OC2(c3ccc(O)cc3Oc3cc(O)ccc32)c2ccc(NC(=S)*)cc21

Tests used:
[1] = system: human PBMC; experiment: Flow cytometry of cell penetrating property in human PBMC; format: cell-based
Description: PBMC (peripheral blood mononuclear cell) and lymphocytes were prepared from the human blood samples (50 ml) collected from healthy subjects using Biocoll Separating Solution (Biochrom AG, Berlin, Germany).
PBMC separated from human blood was used to treat the peptide depending on concentrations, temperature and time and to analyze the cell penetrating property of the peptide. […] Depending on concentrations, cell penetrating property of PEP1 was increased in both lymphocytes and the monocytes. […] (FIG. 32 to FIG. 34)

[2] = system: CHO and HepG2 cells; experiment: Uptake analysis of pep1-FITC in vitro by flow cytometry (primary experiment); format: cell-based
Description: Flow cytometry and Confocal microscopy analysis were performed to compare the degree of cellular uptake among differentcell lines treated with pep1 (SEQ ID NO: 1) and the previously known PTD, TAT ([…]) (SEQ ID NO: 10) of HIV.
(§1) Cells were cultured at 37° C., 5% CO2 incubator and grown to 90˜100% confluence. The confluence. The medium was removed and washed with PBS, 1 mL of OPTI-MEM was added to each well and cultured at 37° C., 5% CO2 incubator for an hour for cell starvation. After washing with OPTI-MEM once, cells were treated with peptide in OPTI-MEM (concentration of […]) and FITC (concentration of 10 μM), cultured at 37° C., 5% CO2 incubator. After removing the medium, cells were washed with 1×PBS three times and harvested using Trysin/EDTA. The cellular uptake of FITC and the rest of FITC-conjugated peptide was compared and analyzed with untreated cell cells as a control.

[3] = system: Huh7, bmDC, CHO, COS7; experiment: Flow cytometry depending on concentration in various cell lines; format: cell-based
Description: as §1
(§2) Cell penetrating property of PEP1 was investigated by treating PEP1 with various cell various cell lines depending on concentrations and time. Specific analytical methods followed the methods described in Example 2. […] In the case of HepG2 cell line, cell penetrating property of TAT was increased whereas that of PEP1 was decreased at a concentration of 50 μM. […] When observing cell penetrating property of the peptide depending on time, the cell penetrating property was increased in Huh7, MCF7 and HeLA cell lines. Especially, in MCH7 cell line when 5 μM of the peptide was treated, cell penetrating property was increased 10 times higher in all time (FIG. 24 to FIG. 26)

[4] = system: Huh7, MCF7 and HeLA cell lines; experiment: Flow cytometry depending on time; format: cell-based, human
Description: as §1, §2

[5] = system: hPBMC; experiment: Cell penetrating property after treatment with various antibodies; format: cell-based, human
Description: The fact that HSP70/90 plays an important role in cell penetrating property of Pep1 was analyzed using HSP70/90 antibody. Antibodies of GAPDH, HSP70, HSP90 and enolase were treated in PBMC separated from human blood, lymphocyte, and Jurkat to perform flow cytometry. Antibodies of GAPDH and enolase were used as control.
(§3) To compare and analyze the cell penetrating property of the peptide using various various antibodies, HSP70, enolase, GAPDH (santacruz), HSP90 antibodies were used. Cells were treated with heparin (10 μg/ml), methyl beta cyclodextrin (5 mM), nocodazole (20 μM), Brefeldin A (10 μM), cytochalasin F (5 μM) or choloroqune (100 μM) an hour before cells were cultured by the peptide. After then, cells were washed with PBS, peptide treatment was performed by flow cytometry analysis as the same method described in Example 2. Anti-HSP70, anti-Enolase and anti-GAPDH antibodies were purchased from Santacruz and anti-HSP90 antibody as purchased from Abcam. To analyze the role of each protein in penetration into cells, cells were treated with antibodies corresponding to the proteins with the same method.

[6] = system: Jurkat, THP1, Raji, K562; experiment: Cell penetrating property depending on concentration, temperature and time in enriched cell lines; format: cell-based, human
Text: (§4) Jurkat (Human T cell line), THP1 (Human mononuclear cell line), Raji (Human B cell line), K562 cell line (Human Leukemia cell line) were used as enriched cell line to treat the peptide depending on concentrations, temperature and time and to analyze the cell penetrating property of the peptide. […] There was no difference in cell penetrating property of PEP1 in all cell lines depending on temperature.

[7] = system: MCF7 cell line; experiment: Flow cytometry depending on concentration and time, MCF7; format: cell-based, human
Description: as §1, §2

[8] = system: human T lymphocyte; experiment: FACS of cell penetrating property in human T lymphocyte; format: cell-based
Description: (§5) The cell line was divided in a 6-well plate and cultured in a medium containing 10% fetal bovine serum (Invitrogen, USA), 100 μg/ml penicillin, 100 units/ml streptomycin at 37° C., 5% CO2 incubator for 12 hours. After washing the cell line with PBS, starvation was induced in a Minimum Essential Medium for an hour. 20 uM of each carrier peptide was treated and cultured at 37° C. for an hour. After repeating the step of washing the cells with PBS for three times, Trypsin-EDTA was treated form 10 mins at 37° C. to separate the carrier peptide on the outside of the cell. cells were collected with refrigerated PBS and centrifugation was performed to repeat the step of washing the cells for three times. After then, the cells were suspended in 0.5 ml of PBS containing 4% Paraformaldehyde and fluorescence of the cells was analyzed using FACS Calibur (Becton Dickinson). The cellular uptake aspect of control and various peptides combined with FITC was compared and analyzed by MFI (Mean Fluorescence Intensity).
To investigate cell penetrating property of PEP1, the peptide was treated in human T lymphocyte, and FACS (Fluorescence-activated sell sorting) was performed as flow cytometry analysis. The analytical method used was same as described in above (1) HeLa cell line analysis. […] (FIG. 11 and FIG. 12)

[9] = system: human PBMC; experiment: Flow cytometry after chemical treatment, human PBMC; format: cell-based; settings: whole PBMC, chemical treatment an hour before peptide
Description: With PBMC separated from human blood, chemical treatment utilization analysis was performed to verify a mechanism of cell penetration. Concentration of chemical treatment was decided based on the data reported in JBC(278(36), 34141-34149 in […]. OPTI-MEM was treated with chemical treatment and washed with PBS an hour before PEP1 peptide was treated and flow cytometry analysis was performed.
as §3

[10] = system: Jurkat cell line; experiment: Flow cytometry after chemical treatment, Jurkat; format: cell-based, human; settings: all of the chemical treatment
[11] = system: Huh7 cell line; experiment: Flow cytometry of cell penetrating property in Huh7 cell line; format: cell-based, human
Description: as §5
To investigate cell penetrating property of PEP1, flow cytometry was performed in Huh7 cell line treated with PEP1. The analytical methods used were same as described in above (1) HeLa cell line analysis. […] (FIG. 9 and FIG. 10)

[12] = system: HepG2 cell line; experiment: Flow cytometry depending on concentration, HepG2; format: cell-based, human; settings: HepG2, 50 μM
Description: as §1, §2

[13] = system: THP1 (Human mononuclear cell line); experiment: Flow cytometry of cell penetrating property, THP1; format: cell-based
Text: as §4

[14] = system: K562 cell line (Human Leukemia cell line); experiment: Flow cytometry of cell penetrating property, K562; format: cell-based
Text: as §4

[15] = system: Raji (Human B cell line); experiment: Flow cytometry of cell penetrating property, Raji; format: cell-based
Text: as §4

[16] = system: Huh7, HepG2, CHO, bmDC; experiment: Flow cytometry and confocal analysis depending on location of FITC; format: cell-based; settings: fluorescence microscope
Description: as §5
To investigate cell penetrating property of PEP1 in various cell lines, flow cytometry and Confocal microscope analysis were performed using a conjugate of PEP1 combined with FITC at N, and C-terminal of the peptide. The analytical method used was same as described in above (1) HeLa cell line analysis. The cell lines used were Huh7, HepG2, CHO, bmDC. […] (FIG. 14)

[17] = system: luciferase in Huh7 cells; experiment: Luciferase assay with siRNA-CPP conjugates, Huh7; format: cell-based, human; settings: Huh cell line, siRNA 400 nM, 16 hours
Description: Huh7 (human hepatocellular carcinoma) cells obtained from ATCC was cultured in a RPMI 1640 medium (Hyclon) containing 10% fetal bovine serum (Invitrogen Co., Carlsbad, Calif., USA), […] L-glutamine, 100 ug/ml penicillin and 100 units/ml of streptomycin at 37° C., 5% CO2 incubator.
(§6) 2×10^5 of Huh7 cells were inserted into each well of a 24 well plate and were grown. Transient transfection on the cells was performed using 2 ug of luciferase objective DNA and lipofectamin 2000 (Invitrogen Co., Carlsbad, Calif., USA). After 4 hours, lipofectamin 2000 was perfectly washed with PBS several times; siRNA of final concentration of […] was treated in 500 ul of Opti-MEM (Invitrogen Co., Carlsbad, Calif., USA) and was reacted at 37° C. incubator for 16 hours. To terminate the reaction, cells were washed with PBS and proteins were lysed using Reporter Lysis Buffer (Progema Co., Madison, Wis., USA) solution and the luminescence was measured by luminometer (Turner BioSystem, Sunnyvale, Calif., USA) using luciferase reagent (Promega Co., Madison, Wis., USA). Efficacy of siRNA was corrected by Bradford protein assay.

[18] = system: luciferase in CHO cell; experiment: Luciferase assay with siRNA-CPP conjugates, CHO; format: cell-based
Description: as §6
To verify cell penetrating property of pep1, siRNA for luciferase purpose was produced produced and luciferase activation was measured using Huh7 (human hepatocelular carcinoma) cells and CHO cell line. The result verified that activation of penetratine and pep1 in siRNA combined with luciferase was reduced approx. 28%, 20% compared with penetratin and pep1 in siRNA combined with control in Huh cell line. […]

Substance: EARPALLTSRLRFIPK (listed as Homo sapiens) [pep1]
- cell penetrating property, increase (times) ([1]; lymphocytes): 1.8 times
- cell penetrating property depending on concentrations ([1]; lymphocytes and monocytes): increased
- cell penetrating property depending on time ([1]; lymphocytes and monocytes): tendency to increase
- increase of cell penetrating property compared to TAT ([1]; monocytes, 5 hours): more than 20%
- cell penetrating property depending on concentrations and time ([1]; whole PBMC): increased
- cell penetrating property, times higher than TAT ([1]; whole PBMC): 1.4 times
- cell penetrating ability depending on position of FITC [2]: best when FITC was conjugated with lysine residue in C terminal
- cell penetrating ability compared with TAT ([2]; FITC-labelled peptides): better cell penetrating ability than TAT
- cell penetrating property depending on concentrations [3]: tendency to increase
- cell penetrating property depending on time [4]: increased
- absorption after treatment with HSP70 and HSP90 specific antibodies [5]: remarkably reduced
- cell penetrating property depending on concentrations ([6]; all cell lines): tendency to increase
- cell penetrating property depending on temperature ([6]; all cell lines): no difference
- increase of cell penetrating property depending on time ([6]; cell lines other than THP1): more than 3 times
- cell penetrating property, times higher than TAT ([7]; MCF cell line): 4 times
- cell penetrating property, times higher in all time ([7]; MCH7 cell line, 5 μM of the peptide, comparator not stated): 10 times
- cell penetrating property, times higher than HIV derived TAT [8]: 6 times
- cell penetrating property, times higher than control FITC [8]: 25 times
- effect of chemical treatment (MatCD and others) on cell penetrating property [9]: tend to be suppressed
- effect of chemical treatment on cell penetrating property [10]: tendency to suppress
- cell penetrating property compared with TAT and control [11]: lower than that of TAT but higher than that of control
- cell penetrating property at a concentration of 50 μM [12]: decreased
- cell penetrating property depending on time [13]: decreased over time

Substance: YGRKKRRQRRR [TAT, reference compound]
- cell penetrating property depending on concentrations and time ([1]; whole PBMC): increased
- cell penetrating property depending on concentrations [3]: tendency to increase
- cell penetrating property, TAT compared with PEP1 [14]: higher cell penetrating property than PEP1
- cell penetrating property, TAT compared with PEP1 [15]: higher cell penetrating property than PEP1
- absorption after treatment with HSP70 and HSP90 specific antibodies [5]: not affected
- effect of chemical treatment (MatCD and others) on cell penetrating property [9]: increased
- effect of chemical treatment on cell penetrating property [10]: no effect
- cell penetrating property at a concentration of 50 μM [12]: increased

Substance: pep1-FITC: pep1 labeled with FITC at the C-terminal (lysine) (EARPALLTSRLRFIPK(FITC); listed as Homo sapiens)
- penetration into the cytoplasm, C-terminal vs N-terminal FITC [16]: higher cell penetrating property to penetrate into the cytoplasm than PEP1 combined with FITC at N-terminal
- absorption after treatment with HSP70 and HSP90 specific antibodies [5]: remarkably reduced
- absorption after treatment with GAPDH or Enolase specific antibodies ([5]; control antibodies): no effect

Substance: siLuc conjugation with Mercaptoacetyl-Ahx-EARPALLTSRLRFIPK (EARPALLTSRLRFIPK-OH; not fully specified (N-terminus); printed as Mercaptoacetyl-Ahx-EARPALLTSRLRFIPK; also: conjugated to luciferase siRNA; UniProt O14746 611-626, looked up, fragment) [siLuc-pep1, luciferase siRNA conjugated to pep1 via thiol-maleimide]
- reduction of luciferase activation compared with the same peptide in siRNA combined with control [17]: ~20%
- inhibition of luciferase activity [18]: about 30%

Substance: siLuc conjugation with Mercaptoacetyl-Ahx-LRALPKRPFISRLTEA [siLuc-scrambled pep1]
- reduction of luciferase activation compared with the same peptide in siRNA combined with control [17]: no significant difference

Substance: siLuc conjugation with Mercaptoacetyl-Ahx-RQIKIWFQNRRMKWKK [siLuc-Penetratin]
- reduction of luciferase activation compared with the same peptide in siRNA combined with control [17]: approx. 28%

Substance: siLuc conjugation with Mercaptoacetyl-Ahx-YGRKKRRQRRR (not fully specified (N-terminus); printed as Mercaptoacetyl-Ahx-YGRKKRRQRRR; also: conjugated to luciferase siRNA; UniProt P04608 47-57, looked up, fragment) [siLuc-Tat(47-57)]
- reduction of luciferase activation compared with the same peptide in siRNA combined with control [17]: no significant difference
